The values below come from paper PMC8778187, “A New Oxygen Containing Pyclen-Type Ligand as a Manganese(II) Binder for MRI and ^52Mn PET Applications: Equilibrium, Kinetic, Relaxometric, Structural and Radiochemical Studies” (Molecules, 2022).

SMILES strings stand for the structures.

Common to all, as to format: physicochemical
Data set [1] in a line: Stability and protonation constants of Ca(II) complexes by pH-potentiometry. The conditions noted are these: Ca^2+ complex; T = 25 °C, I = 0.15 M NaCl. As to the method: (§1) The stability and protonation constants of the metal complexes formed with H2OPC2A were determined by pH-potentiometric titrations, but, for the Cu(II) complex, UV-Vis spectrophotometric measurements were also carried out to supplement the pH-potentiometric titration data (Figures S21 and S22, Supporting Information).
(§2) Metal stock solutions were prepared from the highest analytical grade chemicals, and their concentrations were determined by complexometric titration with standardized Na2H2EDTA and eriochrome black T indicator in the presence of ascorbic acid, and potassium hydrogen tartrate for MnCl2, murexide indicator for CaCl2 and CuCl2, eriochrome black T for MgCl2 and xylenol orange in the presence of hexamethylenetetramine for the solution of ZnCl2. The concentration of the ligand stock solution was determined by pH-potentiometric titrations. The protonation constants of the ligand were determined by the pH potentiometric titrations with 0.15 M NaOH, using 0.0025 M ligand solutions. The ionic strength was set to 0.15 M by using NaCl. […]
To avoid the effect of CO2, N2 gas was bubbled through the solutions during the titrations process. […] For the calibration of the pH meter, KH-phtalate (pH = 4.005) and borax (pH = 9.177) buffers were used, and the H^+ ion concentrations were calculated from the measured pH values by applying the method proposed by Irving et al.. […]

Data set [2] can be described thus: Stability and protonation constants of Zn(II) complexes by pH-potentiometry. The conditions noted are these: Zn^2+ complex; T = 25 °C, I = 0.15 M NaCl. The protocol: as §1
as §2, with “NaCl. The titrated samples (starting volume of 6 mL) were stirred mechanically, and thermostated at 25 °C by a circulating water bath (±0.1 °C).” for “NaCl.”
To avoid the effect of CO2, N2 gas was bubbled through the solutions during the titrations process. […] For the calibration of the pH meter, KH-phtalate (pH = 4.005) and borax (pH = 9.177) buffers were used, and the H^+ ion concentrations were calculated from the measured pH values by applying the method proposed by Irving et al.. A solution of approximately 0.01 M HCl was titrated with a 0.15 M NaOH solution (0.15 or 1.00 M NaCl), and the differences between the measured and calculated pH values (for the points with pH < 2.4) were used to calculate the (H^+) from the pH values measured in the titration experiments. […] The stability constants of the metal complexes (except for Cu(II)) were determined using the direct pH-potentiometric method, by titrating samples with 1:1 metal-to-ligand ratios (the number of fitted data pairs were between 127–212), allowing 1 min for the sample equilibration to occur. […]

The nature of data set [3]: Metal exchange (transmetalation) with Zn(II) followed by T2 relaxometry. From the text: The kinetic inertness of the complexes considered for in vivo applications is an important parameter. It can be characterized by using various approaches. One of the possibilities is to study the rates of dissociation of the complexes, by following the transmetalation reactions occurring between the complex and the large excess (applied to ensure pseudo-first-order conditions) of a suitable exchanging metal ions (essential metal ions, such as Zn(II) or Cu(II) are often used for this purpose). The rates of dissociation reactions are explored as a function of pH (in a wide pH range) as well as in a wide metal ion concentration range, in order to obtain information about the contribution of various mechanisms (spontaneous, acid-, or metal-assisted dissociation). […] Results obtained for different complexes under the same conditions can be compared, and the order of relative inertness can be accessed rapidly. Finally, in the field of nuclear medicine, the “serum stability” is often determined, which, in fact, reflects dissociation in the blood serum (i.e., the dissociation initiated by the serum components). Upon the dissociation of the complex, the Mn(II) reacts with the serum components (HSA for instance), which results in a considerable relaxivity enhancement caused by the formation of Mn(II) species with a longer rotational correlation time (a remarkable increase in molecular mass). Therefore, ^1H relaxometry is an easily accessible tool for following the transmetalation/transchelation reactions of paramagnetic complexes occurring in blood serum.
Metal exchange reactions occurring with Zn(II) at pH = 6.0: first, we evaluated the rate of the metal exchange reaction occurring with Zn(II) under the conditions proposed by P. Caravan and coworkers, in order to have an idea of how the replacement of the secondary amine group for an etheric oxygen in the rim of the pyclen macrocycle affects the inertness of its corresponding Mn(II) complex. The plot of the 1/T2 values as a function of time for the [Mn(3,9-OPC2A)] and [Mn(3,9-PC2A)] complexes are shown in Figure S26 (Supporting Information). Fitting the measured data for the [Mn(3,9-OPC2A)] by the monoexponential function gives the rate constant kobs = (1.74 ± 0.04) × 10^−5 s^−1.
The inertness of the [Mn(3,9-OPC2A)] complex was studied by various methods. The transmetalation reaction initiated by the Zn(II) ions was monitored by measuring the T2 relaxation times as a function of time at pH = 6.0, set by a 50 mM 2-(N-morpholino)ethanesulfonic acid (MES) buffer in the presence of 25 equivalents of Zn(II) ions at 37 °C. These conditions were recently used by P. Caravan et al., and employed in the present study to obtain data that can be directly compared with that of [Mn(PyC3A)]^– [6].

Where [4] appears, read: pH = 6.0, 25 equivalents of Zn(II), 37 °C.

As to `O=C(O)CN1CCOCCN(CC(=O)O)Cc2cccc(n2)C1` [H23,9-OPC2A, 6-Oxa-3,9,15-triazabicyclo(9.3.1)pentadeca-1(15),11,13-triene-3,9-diacetic acid], in data set [1], the “log KMnL” value was 8.27(1). Also, in data set [2], the “log KMnHL” value is recorded as 2.08(3), the “log KMnL” value was 14.81(1) and the “log KMnLOH” value was 10.95(2).
As to `O=C([O-])CN1CCOCCN(CC(=O)[O-])Cc2cccc(n2)C1.[Mn+2]` [[Mn(3,9-OPC2A)]], the kobs result in data set [3] (pH = 6.0 (50 mM MES), 25 equivalents of Zn(II), 37 °C) is “(1.74 ± 0.04) × 10^−5 s^−1”. In data set [3] (setting [4]), the “kobs lower than that of [Mn(PyC3A)]” value is listed as approximately 40 times and the “kobs smaller than that of [Mn(3,9-PC2A)]” value is given as “circa 20 times”. Also, the “half-life of dissociation at pH = 7.4” value in data set [3] (pH = 7.4, large Zn(II) excess, from the rate constant) worked out at 40.0 h.
